Reference: PubChem BioAssay AID2060485 (Molecular Pharmacology Branch, DTP, NCI, 2025)

Tested on: A375 multi-cell spheroids with HUVEC/MSC, viability
Test: Anticancer human tumor A375 cell line growth inhibition [GQUAD];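 note: spheroids exposed to compounds for seven days before readout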
Conditions: for IC50: curve of first compound; for viability, T/C: stronger effect = lower value
Summary of the method: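 Viability of tumor cells grown as complex spheroids with endothelial and stromal cells, exposed to drug combinations. Top concentration at or near clinical Cmax (else 10 microM), diluted in half-log increments.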

[1] = second compound 0.0316 µM, first compound 0.0316 µM
[2] = second compound 0.0316 µM, first compound 0.1 µM
[3] = second compound 0.0316 µM, first compound 0.316 µM
[4] = second compound 0.0316 µM, first compound 1 µM
[5] = second compound 0.0316 µM, first compound 3.16 µM
[6] = second compound 0.0316 µM, first compound 10 µM
[7] = second compound 0.1 µM, first compound 0.0316 µM
[8] = second compound 0.1 µM, first compound 0.1 µM
[9] = second compound 0.1 µM, first compound 0.316 µM
[10] = second compound 0.1 µM, first compound 1 µM
[11] = second compound 0.1 µM, first compound 3.16 µM
[12] = second compound 0.1 µM, first compound 10 µM
[13] = second compound 0.316 µM, first compound 0.0316 µM
[14] = second compound 0.316 µM, first compound 0.1 µM
[15] = second compound 0.316 µM, first compound 0.316 µM
[16] = second compound 0.316 µM, first compound 1 µM
[17] = second compound 0.316 µM, first compound 3.16 µM
[18] = second compound 0.316 µM, first compound 10 µM
[19] = second compound 1 µM, first compound 0.0316 µM
[20] = second compound 1 µM, first compound 0.1 µM
[21] = second compound 1 µM, first compound 0.316 µM
[22] = second compound 1 µM, first compound 1 µM
[23] = second compound 1 µM, first compound 3.16 µM
[24] = second compound 1 µM, first compound 10 µM
[25] = second compound 3.16 µM, first compound 0.0316 µM
[26] = second compound 3.16 µM, first compound 0.1 µM
[27] = second compound 3.16 µM, first compound 0.316 µM
[28] = second compound 3.16 µM, first compound 1 µM
[29] = second compound 3.16 µM, first compound 3.16 µM
[30] = second compound 3.16 µM, first compound 10 µM
[31] = second compound 10 µM, first compound 0.0316 µM
[32] = second compound 10 µM, first compound 0.1 µM
[33] = second compound 10 µM, first compound 0.316 µM
[34] = second compound 10 µM, first compound 1 µM
[35] = second compound 10 µM, first compound 3.16 µM
[36] = second compound 10 µM, first compound 10 µM

O=C(c1cc(Cc2n[nH]c(=O)c3ccccc23)ccc1F)N1CCN(C(=O)C2CC2)CC1 + CN(C)c1ccc(Nc2c3ccc(NC(=O)CCN4CCCC4)cc3nc3cc(NC(=O)CCN4CCCC4)ccc23)cc1
IC50 (second compound 0.0316 µM): > 10000 nM | IC50 (second compound 0.1 µM): > 10000 nM | IC50 (second compound 0.316 µM): > 10000 nM | IC50 (second compound 1 µM): > 10000 nM | IC50 (second compound 3.16 µM): > 10000 nM | IC50 (second compound 10 µM): > 10000 nM | viability, T/C [1]: 104% | viability, T/C [2]: 95.7% | viability, T/C [3]: 113% | viability, T/C [4]: 99.9% | viability, T/C [5]: 103% | viability, T/C [6]: 81.1% | viability, T/C [7]: 104% | viability, T/C [8]: 102% | viability, T/C [9]: 103% | viability, T/C [10]: 100% | viability, T/C [11]: 102% | viability, T/C [12]: 75.6% | viability, T/C [13]: 101% | viability, T/C [14]: 101% | viability, T/C [15]: 102% | viability, T/C [16]: 105% | viability, T/C [17]: 97.6% | viability, T/C [18]: 77.6% | viability, T/C [19]: 97.1% | viability, T/C [20]: 102% | viability, T/C [21]: 93.8% | viability, T/C [22]: 103% | viability, T/C [23]: 102% | viability, T/C [24]: 86.8% | viability, T/C [25]: 100% | viability, T/C [26]: 97.5% | viability, T/C [27]: 100% | viability, T/C [28]: 101% | viability, T/C [29]: 103% | viability, T/C [30]: 73.6% | viability, T/C [31]: 100% | viability, T/C [32]: 96.4% | viability, T/C [33]: 98.8% | viability, T/C [34]: 103% | viability, T/C [35]: 92.9% | viability, T/C [36]: 66.7%

C#Cc1c(F)ccc2cc(O)cc(-c3ncc4c(N5CC6CCC(C5)N6)nc(OCC56CCCN5CC(F)C6)nc4c3F)c12 (stereo not given) + Cc1[nH]c2ccc(F)cc2c1-c1nc2c3cccnc3c3ncccc3c2[nH]1
IC50 (second compound 0.0316 µM): > 10000 nM | IC50 (second compound 0.1 µM): > 10000 nM | IC50 (second compound 0.316 µM): > 10000 nM | IC50 (second compound 1 µM): > 10000 nM | IC50 (second compound 3.16 µM): 5370 nM | IC50 (second compound 10 µM): > 10000 nM | viability, T/C [1]: 102% | viability, T/C [2]: 99.5% | viability, T/C [3]: 97.1% | viability, T/C [4]: 107% | viability, T/C [5]: 97.2% | viability, T/C [6]: 97.1% | viability, T/C [7]: 104% | viability, T/C [8]: 104% | viability, T/C [9]: 99.4% | viability, T/C [10]: 102% | viability, T/C [11]: 101% | viability, T/C [12]: 102% | viability, T/C [13]: 105% | viability, T/C [14]: 104% | viability, T/C [15]: 96.7% | viability, T/C [16]: 101% | viability, T/C [17]: 101% | viability, T/C [18]: 101% | viability, T/C [19]: 113% | viability, T/C [20]: 104% | viability, T/C [21]: 94.2% | viability, T/C [22]: 97.2% | viability, T/C [23]: 105% | viability, T/C [24]: 103% | viability, T/C [25]: 81.8% | viability, T/C [26]: 71.6% | viability, T/C [27]: 74.2% | viability, T/C [28]: 84.7% | viability, T/C [29]: 62.3% | viability, T/C [30]: 35.6% | viability, T/C [31]: 86.5% | viability, T/C [32]: 86.9% | viability, T/C [33]: 94.4% | viability, T/C [34]: 79.8% | viability, T/C [35]: 78% | viability, T/C [36]: 61.8%

CC1COCCN1c1cc(C2(O)CC3CCC(C2)O3)c2cnn(-c3ccn[nH]3)c2n1 (stereo not given) + CN(C)c1ccc(Nc2c3ccc(NC(=O)CCN4CCCC4)cc3nc3cc(NC(=O)CCN4CCCC4)ccc23)cc1
IC50 (second compound 0.0316 µM): 199 nM | IC50 (second compound 0.1 µM): 188 nM | IC50 (second compound 0.316 µM): 210 nM | IC50 (second compound 1 µM): 203 nM | IC50 (second compound 3.16 µM): 226 nM | IC50 (second compound 10 µM): 204 nM | viability, T/C [1]: 94.4% | viability, T/C [2]: 70.8% | viability, T/C [3]: 36.1% | viability, T/C [4]: 15.5% | viability, T/C [5]: 11.3% | viability, T/C [6]: 6.63% | viability, T/C [7]: 97.4% | viability, T/C [8]: 70.4% | viability, T/C [9]: 32.7% | viability, T/C [10]: 15.7% | viability, T/C [11]: 8.49% | viability, T/C [12]: 6.23% | viability, T/C [13]: 101% | viability, T/C [14]: 70.7% | viability, T/C [15]: 40.5% | viability, T/C [16]: 13.9% | viability, T/C [17]: 10.9% | viability, T/C [18]: 7.23% | viability, T/C [19]: 97.9% | viability, T/C [20]: 72.4% | viability, T/C [21]: 35.6% | viability, T/C [22]: 16.3% | viability, T/C [23]: 11.7% | viability, T/C [24]: 7.1% | viability, T/C [25]: 97.2% | viability, T/C [26]: 72.7% | viability, T/C [27]: 41% | viability, T/C [28]: 17.8% | viability, T/C [29]: 11.1% | viability, T/C [30]: 7.14% | viability, T/C [31]: 87.7% | viability, T/C [32]: 67.8% | viability, T/C [33]: 39.7% | viability, T/C [34]: 16% | viability, T/C [35]: 11.5% | viability, T/C [36]: 6.9%

CC(=O)O[C@H]1C(=O)[C@@]2(C)[C@H]([C@H](OC(=O)c3ccccc3)[C@]3(O)C[C@H](OC(=O)[C@H](O)[C@@H](NC(=O)c4ccccc4)c4ccccc4)C(C)=C1C3(C)C)[C@]1(OC(C)=O)CO[C@@H]1C[C@@H]2O + Cc1cnc(CNC(=O)c2c(=O)c3ccc(N4CCCN(C)CC4)nc3n3c2sc2ccccc23)cn1
IC50 (second compound 0.0316 µM): 64.2 nM | IC50 (second compound 0.1 µM): 36.1 nM | IC50 (second compound 0.316 µM): < 31.6 nM | IC50 (second compound 1 µM): < 31.6 nM | IC50 (second compound 3.16 µM): < 31.6 nM | IC50 (second compound 10 µM): < 31.6 nM | viability, T/C [1]: 77.3% | viability, T/C [2]: 33% | viability, T/C [3]: 18.5% | viability, T/C [4]: 14.2% | viability, T/C [5]: 14.7% | viability, T/C [6]: 19% | viability, T/C [7]: 53.3% | viability, T/C [8]: 24.9% | viability, T/C [9]: 17.8% | viability, T/C [10]: 21.1% | viability, T/C [11]: 18.1% | viability, T/C [12]: 23.2% | viability, T/C [13]: 40.1% | viability, T/C [14]: 25.9% | viability, T/C [15]: 25.2% | viability, T/C [16]: 21.2% | viability, T/C [17]: 20.1% | viability, T/C [18]: 22.8% | viability, T/C [19]: 35% | viability, T/C [20]: 24.3% | viability, T/C [21]: 26.8% | viability, T/C [22]: 28.2% | viability, T/C [23]: 31% | viability, T/C [24]: 32.1% | viability, T/C [25]: 30.1% | viability, T/C [26]: 23.1% | viability, T/C [27]: 24.4% | viability, T/C [28]: 28.7% | viability, T/C [29]: 28.2% | viability, T/C [30]: 33.7% | viability, T/C [31]: 26.7% | viability, T/C [32]: 23.3% | viability, T/C [33]: 23.5% | viability, T/C [34]: 23.3% | viability, T/C [35]: 26% | viability, T/C [36]: 29.6%

CC(=O)O[C@H]1C(=O)[C@@]2(C)[C@H]([C@H](OC(=O)c3ccccc3)[C@]3(O)C[C@H](OC(=O)[C@H](O)[C@@H](NC(=O)c4ccccc4)c4ccccc4)C(C)=C1C3(C)C)[C@]1(OC(C)=O)CO[C@@H]1C[C@@H]2O + Cc1[nH]c2ccc(F)cc2c1-c1nc2c3cccnc3c3ncccc3c2[nH]1
IC50 (second compound 0.0316 µM): 46.8 nM | IC50 (second compound 0.1 µM): 52.3 nM | IC50 (second compound 0.316 µM): 52.5 nM | IC50 (second compound 1 µM): 50.9 nM | IC50 (second compound 3.16 µM): < 31.6 nM | IC50 (second compound 10 µM): < 31.6 nM | viability, T/C [1]: 67.1% | viability, T/C [2]: 16.8% | viability, T/C [3]: 9.66% | viability, T/C [4]: 8.81% | viability, T/C [5]: 9.39% | viability, T/C [6]: 10.1% | viability, T/C [7]: 73.9% | viability, T/C [8]: 19.3% | viability, T/C [9]: 10.3% | viability, T/C [10]: 11.5% | viability, T/C [11]: 7.58% | viability, T/C [12]: 12.6% | viability, T/C [13]: 72.2% | viability, T/C [14]: 21.9% | viability, T/C [15]: 11.6% | viability, T/C [16]: 11.8% | viability, T/C [17]: 10.5% | viability, T/C [18]: 13.2% | viability, T/C [19]: 68.5% | viability, T/C [20]: 23.8% | viability, T/C [21]: 14.5% | viability, T/C [22]: 13.7% | viability, T/C [23]: 13.9% | viability, T/C [24]: 17.3% | viability, T/C [25]: 25.6% | viability, T/C [26]: 16% | viability, T/C [27]: 15% | viability, T/C [28]: 19.8% | viability, T/C [29]: 14.5% | viability, T/C [30]: 12.9% | viability, T/C [31]: 33.6% | viability, T/C [32]: 22.9% | viability, T/C [33]: 18.8% | viability, T/C [34]: 18.8% | viability, T/C [35]: 17.9% | viability, T/C [36]: 18.8%
